Data set [1] relates to TNBC cells (BM1, MB436, MB468, BT549). It is filed as cell-based, human. Here is the method:
TNBC cell lines stably knocked down with lenti-viral shRNA for BACH1 were constructed and maintained as described previously. Gene expression analysis of cultured cells and isolated tumor tissues used a Reverse transcriptase kit followed by Roche96 cycler for real time mRNA quantification and Lycor imaging for immunoblotting. For in vitro cell viability assay with mitochondrial inhibitors, TNBC cells (2×10^3-5×10^3/well) seeded on 96 well plates overnight with culture media (DMEM with 25 mM Glucose) were treated with inhibitors in fresh culture media (DMEM with 1.25 mM Glucose) for 48 and 72 hours and stained with calcein AM and/or monitored for cellular confluency using an IncuCyte Zoom Live Cell Analysis system. Extracellular flux analyzer was used to assay metabolic phenotypes of BACH1-depleted TNBC cells and TNBC cells that are treated with hemin overnight before assays. For bioinformatics analysis using primary patient data cohort (TCGA), cBioportal and R were used.
Breast cancer cells (5,000 cells/well) and non-malignant mammary epithelial cells (8,000 cells/well) were plated on 96-well plates to observe growth of cells every 4 hours by phase contrast imaging using an IncuCyte Zoom Live Cell Analysis system (Essen Bioscience). After 24 hours of plating, inhibitors were added and monitored until control cells reached 100% confluent. To determine cell viability, cells were seeded in black walled 96-well plates overnight and treated with inhibitors for 48 hours. Calcein AM (R&D system) in PBS was then added and incubated for 1 hour at 37° C. Fluorescence was determined using a Victor3 plate reader (PerkinElmer) with excitation at 420 nm and emission at 520 nm. The absorbance was used to reflect live cell numbers and was normalized to those in control with vehicles and shown as relative viability (%).

In data set [2] the target is T1, BACH1 (Mus musculus, UniProt P97302, C438A/C464A/C495A/C649A).
T1 construct: Protein blots of BACH1 levels in BM1 and MB436 cells treated with Hemin for 4 or 24 hours; endogenous in cells; host or cells: BM1 (MDA-MB-231 derivative), MDA-MB-436, BT549
T1 sequence (P97302 1-739 C438A/C464A/C495A/C649A): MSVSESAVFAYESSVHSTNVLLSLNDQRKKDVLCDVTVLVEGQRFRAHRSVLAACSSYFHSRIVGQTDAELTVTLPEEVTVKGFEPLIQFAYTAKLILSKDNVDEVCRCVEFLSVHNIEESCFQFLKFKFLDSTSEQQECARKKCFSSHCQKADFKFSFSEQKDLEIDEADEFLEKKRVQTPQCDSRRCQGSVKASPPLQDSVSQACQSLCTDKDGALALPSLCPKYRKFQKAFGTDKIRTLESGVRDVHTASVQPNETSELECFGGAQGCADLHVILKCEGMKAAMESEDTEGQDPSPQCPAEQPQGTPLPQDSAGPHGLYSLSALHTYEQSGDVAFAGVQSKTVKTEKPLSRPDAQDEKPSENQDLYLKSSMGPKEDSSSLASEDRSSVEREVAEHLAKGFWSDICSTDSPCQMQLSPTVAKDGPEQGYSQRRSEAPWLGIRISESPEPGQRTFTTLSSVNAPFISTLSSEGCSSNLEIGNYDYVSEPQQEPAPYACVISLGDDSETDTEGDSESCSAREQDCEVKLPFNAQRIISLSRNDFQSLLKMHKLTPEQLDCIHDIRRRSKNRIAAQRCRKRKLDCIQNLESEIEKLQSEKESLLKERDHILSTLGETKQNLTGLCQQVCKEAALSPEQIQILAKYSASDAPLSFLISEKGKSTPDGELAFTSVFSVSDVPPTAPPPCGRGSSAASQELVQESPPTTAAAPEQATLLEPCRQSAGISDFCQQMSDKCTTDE
Briefly: Immunoblotting of BACH1 in cell lysates after hemin. To be noted: hemin 20 μM. It is filed as cell-based, human. How it is done:
Whole cell lysates were prepared using RIPA buffer (Sigma) with protease inhibitor cocktails (1:100 ThermoFisher) and phosphatase inhibitors (SimpleStop1, Gold Biotechnology) at 4° C. and quantified using Bradford assays for western blotting using antibodies against BACH1 (sc-271211; Santa Cruz), and alpha-TUBULIN (sc-28199; Santa Cruz). Blots were imaged and processed using a Licor Odyssey Fc, dual-mode imaging system (Licor).
For orientation: Immunoblotting shows a protein as a band on a membrane.

Data set [3] deals with mitochondrial inner membrane genes. Nature of the data set: Real-time quantitative PCR of mitochondrial inner membrane (ETC) genes. The format is cell-based, human. To be noted: hemin 20 μM, 48 hours; BM1 and MB436 cells. Here is the method: (§1) Total RNA from cells and tumor samples was isolated using Trizol (Invitrogen) according to the manufacturer's instructions. Two μg of RNA was adapted for reverse transcriptase PCR (Applied Biosystem) to generate cDNA. Real-time PCR was carried out using LightCycler 96 (Roche) and a Fast Start Essential DNA master mix (2×) reagent. Cq values normalized relative to the expression of endogenous control genes using 2^(−ΔΔCq) were plotted.

Data set [4] concerns HMOX1. Briefly: Real-time quantitative PCR of HMOX1. To be noted: hemin 20 μM, 48 hours; BM1 and MB436 cells. It is filed as cell-based, human. Here is the method: as §1
The subject of data set [5] is BACH1-enriched TNBC PDX tumor. Nature of the data set: Patient-derived xenograft (PDX) model treated with hemin and metformin. The conditions noted are these: hemin 50 mg/kg/day i.p. and/or metformin 300 mg/kg/day; SCID-BEIGE mice. The format is in vivo, mouse. How it is done: For a patient-derived xenografts (PDX) model, frozen PDX tumors in 0.5 ml of sterile HBSS were prepared in a volume of 10-20 mm^3. In brief, tumor fragments were implanted into the mammary fat pads of 5 weeks old SCID-Beige mice following standard procedures. […] Tumor volume was measured by caliper weekly. Tumor weight was measured at the end of drug treatment. Tumor size was shown as mean+/_s.e.m. with significance (p-value) by paired Student's t-test. All the animals were also monitored regularly for body weights.

For data set [6], the system named is MB436 xenograft tumors. The conditions noted are these: hemin 50 mg/kg/day i.p. 10 consecutive days prior to metformin 200 mg/kg.
Experimental: Two million human breast cancer cells (MDA-MB-436-shCont, MDA-MB-436-shBACH1, BM1-shBACH1, or BM1-shCont) in 100 μl PBS were injected into the mammary fat pads of 5 to 6 weeks old athymic nude female mice (Charles River Laboratories). When tumors were about 20-30 or 50 mm^3 in volume, hemin (50 mg/kg/day) or vehicle (20 mM NaOH in phosphate buffered saline) was injected intraperitoneally for 10 days prior to metformin treatment for 8 weeks. Metformin (200 mg/kg for MDA-MB-436 cells or 300 mg/kg for BM1-cells) was provided in drinking water ad libidum. Tumor growth was monitored weekly by caliper measurement in two dimensions to generate ellipsoid volumes using an equation of vol.=0.4×(L×W^2).

The structures appear in SMILES notation.

For the compound `C=CC1=C(C)c2cc3[n-]c(cc4[n-]c(cc5nc(cc1n2)C(C)=C5C=C)c(C)c4CCC(=O)O)c(CCC(=O)O)c3C.[Cl-].[Fe+3]` [hemin, Chloro[3,7,12,17-tetramethyl-8,13-divinylporphyrin-2,18-dipropanoato(2-)]iron(III)], the “cytotoxicity / growth inhibition of cultured TNBC cells” value in data set [1] (20 μM hemin) is on record as “neither cytotoxic nor growth inhibitory”. Also, in data set [1] (MB468 transfected with pCDH-BACH1), the “metformin sensitivity of MB468 cells expressing wild type BACH1 when treated with hemin” value is “metformin sensitivity was restored”. Besides, in data set [1] (hemin 10-80 μM up to 124 hours), the “cytotoxicity / growth inhibition of TNBC cells” value is reported as “neither cytotoxic nor growth inhibitory”. The “degradation of heme-resistant BACH1 mutant (Mut-Bach1)” value in data set [2] is “did not degrade Mut-Bach1”. Also, the mitochondrial gene expression entry in data set [3] is “increased”. In data set [4], the HMOX1 expression entry is “increased”. Also, in data set [5], the “PDX tumor volume, weight, size compared to controls” value is “considerable reduction in tumor volumes”. In addition, in data set [6], the “breast tumor growth / volume” value was “neither hemin nor metformin alone significantly altered tumor growth”.

These data come from patent US10888569B1, “Methods and compositions for treating cancer” (THE UNIVERSITY OF CHICAGO, priority 2017, dated 2021).
